Source: PubChem BioAssay (NCI)
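Five compound concentrations were applied to cells in 96-well plates for 48 hours; endpoints were derived by simple linear interpolation of the resulting dose-response curve. At the TGI there is no net growth.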

Tests used:
Assay in all cases: NCI anticancer screen, dose series, 48 h
[1] = test system: LOX IMVI melanoma
[2] = test system: ACHN renal
[3] = test system: SF-295 CNS
[4] = test system: HCC-2998 colon
[5] = test system: PC-3 prostate
[6] = test system: OVCAR-5 ovarian
[7] = test system: T-47D breast
[8] = test system: NCI-H23 lung
[9] = test system: MCF7 breast
[10] = test system: CAKI-1 renal
[11] = test system: 786-0 renal
[12] = test system: SNB-19 CNS
[13] = test system: RPMI-8226 leukemia
[14] = test system: OVCAR-4 ovarian
[15] = test system: U251 CNS
[16] = test system: NCI-H460 lung
[17] = test system: IGROV1 ovarian
[18] = test system: M14 melanoma
[19] = test system: DU-145 prostate
[20] = test system: SK-MEL-2 melanoma
[21] = test system: BT-549 breast
[22] = test system: SNB-75 CNS
[23] = test system: MDA-MB-435
[24] = test system: HOP-62 NSCLC
[25] = test system: KM12 colon
[26] = test system: HT29 colon
[27] = test system: K-562 leukemia
[28] = test system: MDA-MB-231 breast
[29] = test system: SK-OV-3 ovarian
[30] = test system: NCI-H226 lung
[31] = test system: SN12C renal
[32] = test system: OVCAR-3 ovarian
[33] = test system: HCT-15 colon
[34] = test system: MDA-N
[35] = test system: SF-268 CNS
[36] = test system: UO-31 renal
[37] = test system: NCI/ADR-RES ovarian
[38] = test system: HCT-116 colon
[39] = test system: MALME-3M melanoma
[40] = test system: A549 NSCLC
[41] = test system: A498 renal
[42] = test system: HS 578T breast
[43] = test system: EKVX NSCLC
[44] = test system: OVCAR-8 ovarian
[45] = test system: HOP-92 NSCLC
[46] = test system: COLO 205 colon
[47] = test system: TK-10 renal
[48] = test system: SK-MEL-28 melanoma
[49] = test system: HL-60(TB) leukemia
[50] = test system: SK-MEL-5 melanoma
[51] = test system: SW-620 colon
[52] = test system: NCI-H522 lung
[53] = test system: MOLT-4 leukemia
[54] = test system: UACC-257 melanoma
[55] = test system: UACC-62 melanoma
[56] = test system: CCRF-CEM leukemia
[57] = test system: SF-539 CNS
[58] = test system: RXF 393 renal

Measured: TGI

O=c1ccn(C2OC(CN(O)CCC3C(O)C(CO)OC3n3ccc(=O)[nH]c3=O)C(O)C2O)c(=O)[nH]1 (stereo not given)
not listed: [48] | [49] | [50] | [51] | [52] | [53] | [54] | [55] | [56] | [57] | [58]
> 100 µM: all other assays above

CCOP(=O)(OCC)OC1c2[nH]ccc2-c2cc(C(=O)OC)[nH]c2C1OC (stereo not given)
not listed: [13] | [30] | [41] | [45]
> 100 µM: all other assays above

C/C=C1/C[C@@H](C)[C@@](C)(O)C(=O)OCC2=CC[N+]3([O-])CC[C@@H](OC1=O)[C@@H]23 (stereo not given in full)
not listed: [13] | [24] | [58]
> 100 µM: all other assays above

CC(C)(C)N1C(=O)N=[N+](/C(=C(\c2ccccc2)n2nc([O-])n(C(C)(C)C)c2=O)c2ccccc2)C1=O
not listed: [17] | [24] | [26] | [30] | [37] | [39] | [43] | [44] | [49] | [52]
> 100 µM: all other assays above

CCCCC1C=Cn2c(=O)oc3c(OC(C)C)c(OC(C)C)c(O)c1c32 (stereo not given)
46.6 µM: [40]
83.1 µM: [43]
34.2 µM: [6] | [19]
24.7 µM: [52]
34.9 µM: [38]
34.7 µM: [21]
27 µM: [7]
67 µM: [42]
32.6 µM: [8]
39.3 µM: [48]
27.5 µM: [30]
46.3 µM: [18]
32.3 µM: [41]
44.9 µM: [35]
48.6 µM: [11]
37.7 µM: [20]
68.2 µM: [12]
28.8 µM: [55]
27.4 µM: [1] | [25]
26.8 µM: [23]
27.8 µM: [50] | [53] | [36]
31.4 µM: [33] | [47]
29.4 µM: [15]
30.6 µM: [32]
84.3 µM: [29]
29.5 µM: [44]
25.6 µM: [56]
55.5 µM: [34]
40 µM: [3]
37.5 µM: [10]
29.6 µM: [16]
33.1 µM: [28]
> 100 µM: [2] | [5]
47.5 µM: [22]
38.7 µM: [57]
38 µM: [24]
49.1 µM: [31]
42.8 µM: [14]
41.7 µM: [54]
47.2 µM: [45]
29.2 µM: [9] | [26]
27.2 µM: [51]
22.8 µM: [49]
30.3 µM: [46]
